Measurements as given in US20140017701A1, “CHIMERIC PDK1 KINASES” (priority 2011, published 2014).
pIC50: −log10 of the molar value.

Columns and labels:
[1] = biological target: T1, PKCα (Homo sapiens, UniProt P17252); experiment: Protein kinase activity assay, PKCα; type: biochemical; conditions: Table I b; percentage of catalytic activity compared to DMSO; lipid activator mix, histone H1
T1 construct: purchased Millipore
Protocol: (§1) The protein kinase activity assays were performed essentially as previously described (Engel, M. et al. Embo J 25, 5469-80 (2006)). The assays were done in a 96-well format and 4 μl aliquots spotted on P81 phospho-cellulose papers (Whatman) using epMotion 5070 (Eppendorf), washed in 0.01% phosphoric acid, dried, and then exposed and analyzed using PhosphoImager technology (FLA-9000 Starion, Fujifilm). Atypical PKC (aPKC) activity assays were performed in a total volume of 20 μl containing 50 mM Tris-HCl pH 7.5, 0.05 mg/ml BSA, 0.1% (v/v) 2-mercaptoethanol, 10 mM MgCl2, 100 μM [γ^32P]ATP (5-50 cpm/pmol), 0.003% Brij, 30-50 ng of aPKC, and MBP (10 μM) or PSRtide (100 μM) as the substrate. After 15 min pre-incubation, the kinase reaction was started by addition of 6 μl of an ATP-Mg mix. When required, lipid activator (LA) phosphatidylserine (100 ng) or PKC lipid activator mix (1×) was included in the pre-incubation. Low basal activity and consistent activation of 1-592 PKCζ and 498 PKCζ by LA was obtained when the pre-incubation time was started by addition of the whole mix on the enzyme.
(§2) The substrates were T308tide (200 μM) for PDK1, Kemptide (100 μM) for PKA, and Crosstide (100 μM) for SGK, PKB, S6K, and PRK2. The activity assays for PKCα, β, θ, and δ were performed in the presence of PKC lipid activator mix (1×) using 3 μM of histone H1 as substrate. […]

[2] = biological target: T2, S6K1-T2-[Thr412Glu] (Homo sapiens, UniProt P23443, T412E); experiment: Protein kinase activity assay, S6K1; type: biochemical; conditions: Table I a; percentage of catalytic activity compared to DMSO; Crosstide substrate
T2 construct: His; made in house; host or cells: Sf9 insect cells (baculovirus)
T2 sequence (P23443 1-421 T412E limits assumed): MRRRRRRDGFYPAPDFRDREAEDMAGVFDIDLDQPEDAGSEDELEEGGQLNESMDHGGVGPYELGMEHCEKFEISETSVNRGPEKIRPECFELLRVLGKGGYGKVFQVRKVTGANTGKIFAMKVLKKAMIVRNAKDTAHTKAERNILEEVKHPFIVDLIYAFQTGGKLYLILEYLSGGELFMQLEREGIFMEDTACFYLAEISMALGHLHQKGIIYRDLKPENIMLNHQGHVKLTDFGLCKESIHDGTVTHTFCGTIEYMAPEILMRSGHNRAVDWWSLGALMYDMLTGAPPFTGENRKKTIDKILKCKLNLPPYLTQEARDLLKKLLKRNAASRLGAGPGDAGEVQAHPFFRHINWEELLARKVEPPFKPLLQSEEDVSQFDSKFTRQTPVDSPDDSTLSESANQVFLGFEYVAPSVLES
Protocol: (§3) For the expression and purification of protein kinases fused to GST, pEBG-2T derived plasmids were transfected into 8×14.5 cm dishes containing HEK293 cells using the PEI method ([…] and […]/14.5 cm dish). The cells were lysed after 48 h in a buffer containing 50 mM Tris-HCl pH 7.5, 1 mM EGTA, 1 mM EDTA, 1% (w/v) Triton X-100, 1 mM sodium orthovanadate, […], 5 mM sodium pyrophosphate, 0.27 M sucrose, 0.1% β-mercaptoethanol, and 1 tablet of protease inhibitor cocktail per 50 ml of buffer. Lysates were frozen in liquid nitrogen and kept at −80° C. until required. Purification involved incubation of the cleared lysate with glutathione sepharose, followed by 2 washes with 0.5 M NaCl in lysis buffer, 8 washes with a buffer containing 50 mM Tris-HCl, 0.1 mM EGTA and 0.1% β-mercaptoethanol (buffer A), and a last wash with buffer A supplemented with 0.26 M sucrose. […]
(§4) The protein kinase activity assays were performed essentially as previously described (Engel, M. et al. Embo J 25, 5469-80 (2006)). The assays were done in a 96-well format and 4 μl aliquots spotted on P81 phospho-cellulose papers (Whatman) using epMotion 5070 (Eppendorf), washed in 0.01% phosphoric acid, dried, and then exposed and analyzed using PhosphoImager technology (FLA-9000 Starion, Fujifilm). […]

[3] = system: PDK1; experiment: Protein kinase activity assay, PDK1; type: biochemical, human; conditions: for Effect on PDK1 activity: PDK1 wt / PDK1 50-359; for Activity (%) PDK1: Table I a, percentage of catalytic activity compared to DMSO, T308tide substrate, 50 μM stated for PS171
Protocol: For the expression and purification of protein kinases fused to GST, pEBG-2T derived plasmids were transfected into 8×14.5 cm dishes containing HEK293 cells using the PEI method ([…] and […]/14.5 cm dish). The cells were lysed after 48 h in a buffer containing 50 mM Tris-HCl pH 7.5, 1 mM EGTA, 1 mM EDTA, 1% (w/v) Triton X-100, 1 mM sodium orthovanadate, […], 5 mM sodium pyrophosphate, 0.27 M sucrose, 0.1% β-mercaptoethanol, and 1 tablet of protease inhibitor cocktail per 50 ml of buffer. Lysates were frozen in liquid nitrogen and kept at −80° C. until required. Purification involved incubation of the cleared lysate with glutathione sepharose, followed by 2 washes with 0.5 M NaCl in lysis buffer, 8 washes with a buffer containing 50 mM Tris-HCl, 0.1 mM EGTA and 0.1% β-mercaptoethanol (buffer A), and a last wash with buffer A supplemented with 0.26 M sucrose. Elution was performed with this last buffer containing 20 mM glutathione and the GST-fusion protein was cleared from resin by filtration through a “SigmaPrep” spin column (Sigma). GST-fusion proteins were aliquoted, snap frozen in liquid nitrogen and kept at −80° C. until use. Purity at this stage was above 85% as estimated by SDS-PAGE and staining with Coomassie Brilliant Blue R250. PRK2 was expressed from pEBG-2T-PRK2 (Balendran, A. et al. J Biol Chem 275, 20806-13. (2000)), SGK1 from pEBG-2T-SGK1-ΔN[Ser422Asp], PKBα from pEBG-2T-PKBα[Ser473Asp] (Biondi et al., D. R. Embo J 20, 4380-90. (2001)), PKCl from pEBG-2T-PKCl and PKCζ from pEBG-2T-PKCζ. PDK1 and S6K1 were expressed in Sf9 insect cells using a baculovirus expression system from pFastBac-PDK1 and pFastBac-56K1-T2[Thr412Glu].
as §1
The substrates were T308tide (200 μM) for PDK1, Kemptide (100 μM) for PKA, and Crosstide (100 μM) for SGK, PKB, S6K, and PRK2. The activity assays for PKCα, β, θ, and δ were performed in the presence of PKC lipid activator mix (1×) using 3 μM of histone H1 as substrate.
The activity assays were performed in duplicates or triplicates (in the case of the temperature stability assay) with less than 10% difference between the duplicate pairs. The activity assays shown were repeated at least twice with similar results. Moreover, most of the assays shown were repeated multiple times with enzymes from independent purifications with similar results. Representative experiments are shown. […]

[4] = biological target: T3, PRK2 (Homo sapiens, UniProt Q16513); experiment: Protein kinase activity assay, PRK2; type: biochemical; conditions: Table I a; percentage of catalytic activity compared to DMSO; Crosstide substrate
T3 construct: made in house; host or cells: HEK293
T3 sequence (Q16513 whole entry): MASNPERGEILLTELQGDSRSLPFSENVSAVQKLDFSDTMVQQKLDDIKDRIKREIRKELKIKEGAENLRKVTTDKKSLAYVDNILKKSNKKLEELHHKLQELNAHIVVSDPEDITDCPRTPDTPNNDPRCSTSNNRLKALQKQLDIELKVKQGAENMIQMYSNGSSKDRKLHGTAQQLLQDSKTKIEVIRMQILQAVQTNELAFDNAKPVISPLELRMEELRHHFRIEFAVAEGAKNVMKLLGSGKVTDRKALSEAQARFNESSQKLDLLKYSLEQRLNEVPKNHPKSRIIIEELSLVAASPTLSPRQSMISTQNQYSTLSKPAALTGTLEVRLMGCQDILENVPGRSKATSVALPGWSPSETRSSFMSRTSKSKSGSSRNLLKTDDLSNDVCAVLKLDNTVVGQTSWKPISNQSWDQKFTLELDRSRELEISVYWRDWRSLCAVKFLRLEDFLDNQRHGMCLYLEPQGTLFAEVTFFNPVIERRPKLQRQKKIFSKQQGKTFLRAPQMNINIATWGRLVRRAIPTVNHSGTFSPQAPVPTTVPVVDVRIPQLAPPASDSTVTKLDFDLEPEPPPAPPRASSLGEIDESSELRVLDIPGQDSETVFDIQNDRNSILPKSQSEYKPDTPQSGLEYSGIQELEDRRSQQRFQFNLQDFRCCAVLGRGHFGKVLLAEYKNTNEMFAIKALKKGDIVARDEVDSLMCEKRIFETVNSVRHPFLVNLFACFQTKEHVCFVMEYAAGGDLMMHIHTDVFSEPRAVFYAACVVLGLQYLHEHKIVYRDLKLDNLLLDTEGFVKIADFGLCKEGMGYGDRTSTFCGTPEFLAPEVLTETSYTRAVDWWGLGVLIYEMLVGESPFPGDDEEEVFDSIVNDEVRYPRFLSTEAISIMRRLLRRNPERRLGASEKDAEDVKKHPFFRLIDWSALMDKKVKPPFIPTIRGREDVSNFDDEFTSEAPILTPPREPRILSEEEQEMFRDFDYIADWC
Protocol: as §3, §4

[5] = biological target: T4, PKBα [Ser473Asp] (Homo sapiens, UniProt P31749, S473D); experiment: Protein kinase activity assay, PKBα; type: biochemical; conditions: Table I a; percentage of catalytic activity compared to DMSO; Crosstide substrate
T4 construct: made in house; host or cells: HEK293
T4 sequence (P31749 whole entry S473D): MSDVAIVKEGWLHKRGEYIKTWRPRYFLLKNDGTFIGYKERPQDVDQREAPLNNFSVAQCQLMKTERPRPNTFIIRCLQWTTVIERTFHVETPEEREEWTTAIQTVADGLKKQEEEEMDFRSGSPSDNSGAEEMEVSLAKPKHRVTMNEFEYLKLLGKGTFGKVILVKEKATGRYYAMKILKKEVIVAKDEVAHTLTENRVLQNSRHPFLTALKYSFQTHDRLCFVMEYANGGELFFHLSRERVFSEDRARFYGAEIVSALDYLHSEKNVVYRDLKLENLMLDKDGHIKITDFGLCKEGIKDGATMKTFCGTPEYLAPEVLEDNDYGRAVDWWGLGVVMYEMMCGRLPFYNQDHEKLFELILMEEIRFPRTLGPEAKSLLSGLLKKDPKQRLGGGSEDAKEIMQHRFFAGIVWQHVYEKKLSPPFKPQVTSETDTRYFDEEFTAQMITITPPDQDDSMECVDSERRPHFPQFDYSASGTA
Protocol: as §3, §4

[6] = biological target: T5, PKCβ (Homo sapiens, UniProt P05771); experiment: Protein kinase activity assay, PKCβ; type: biochemical; conditions: Table I b; percentage of catalytic activity compared to DMSO; lipid activator mix, histone H1
T5 construct: purchased ProQinase
T5 sequence (P05771 whole entry, species assumed): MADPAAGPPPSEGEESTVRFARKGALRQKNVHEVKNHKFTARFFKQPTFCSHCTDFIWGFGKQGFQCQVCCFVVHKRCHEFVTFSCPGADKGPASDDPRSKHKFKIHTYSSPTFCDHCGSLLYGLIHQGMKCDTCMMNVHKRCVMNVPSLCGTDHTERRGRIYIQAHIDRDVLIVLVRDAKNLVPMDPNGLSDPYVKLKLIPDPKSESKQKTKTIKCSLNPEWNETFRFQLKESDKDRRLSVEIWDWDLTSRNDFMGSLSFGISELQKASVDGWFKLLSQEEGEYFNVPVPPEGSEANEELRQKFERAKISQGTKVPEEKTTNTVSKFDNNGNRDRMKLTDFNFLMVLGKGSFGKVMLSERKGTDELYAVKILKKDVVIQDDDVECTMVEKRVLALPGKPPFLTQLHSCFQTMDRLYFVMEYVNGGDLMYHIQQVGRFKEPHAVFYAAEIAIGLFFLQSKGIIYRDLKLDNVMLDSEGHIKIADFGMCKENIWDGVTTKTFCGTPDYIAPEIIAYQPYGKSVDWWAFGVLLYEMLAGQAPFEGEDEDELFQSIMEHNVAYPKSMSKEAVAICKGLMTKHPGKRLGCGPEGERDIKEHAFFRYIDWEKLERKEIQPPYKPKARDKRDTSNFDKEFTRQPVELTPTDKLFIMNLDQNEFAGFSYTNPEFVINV
Protocol: as §1, §2

[7] = system: PKCζ-dependent NFκB activation in U937 cells; experiment: PKCζ-dependent NFκB signaling in U937 cells (luciferase reporter, TNFα stimulation); type: cell-based; conditions: 3 h pre-incubation, TNFα 50 ng/ml 90 min, read-out: IC50, inhibition of PKCζ-dependent NFκB activation
Protocol: In U937 lymphoma cells, tumor necrosis factor alpha (TNFα) dependent activation of NFκB is dependent on PKCζ activity (Folgueira, L. et al. J Virol 70, 223-31 (1996); Muller, G. et al. Embo J 14, 1961-9 (1995)). U937cells were transiently transfected with a plasmid encoding for luciferase under the control of NFκB response elements (pGL4.32 [luc2P/NF-κB-RE/Hygro], Promega). After serum starvation overnight, the cells were incubated in 96-well plates with the compounds or DMSO (0.25%) for 3 h and stimulated with TNFα (50 ng/ml, PeproTech) for 90 min. Bright-Glo Luciferase Assay reagent (Promega) was added and the luciferase activity measured using the multilabel reader station EnVision (Perkin Elmer).
U937 lymphoma cells were transiently transfected with a plasmid coding for luciferase under the control of the NFκB promoter. Upon stimulation of the cells with TNFα, an increase in luciferase activity is detected. In U937 cells, the NFκB signaling pathway is dependent on PKCζ activity (Muller, G. et al. Embo J 14, 1961-9 (1995)).

[8] = biological target: T6, PKCδ (Homo sapiens, UniProt Q05655); experiment: Protein kinase activity assay, PKCδ; type: biochemical; conditions: Table I b; percentage of catalytic activity compared to DMSO; lipid activator mix, histone H1
T6 construct: purchased ProQinase
T6 sequence (Q05655 whole entry): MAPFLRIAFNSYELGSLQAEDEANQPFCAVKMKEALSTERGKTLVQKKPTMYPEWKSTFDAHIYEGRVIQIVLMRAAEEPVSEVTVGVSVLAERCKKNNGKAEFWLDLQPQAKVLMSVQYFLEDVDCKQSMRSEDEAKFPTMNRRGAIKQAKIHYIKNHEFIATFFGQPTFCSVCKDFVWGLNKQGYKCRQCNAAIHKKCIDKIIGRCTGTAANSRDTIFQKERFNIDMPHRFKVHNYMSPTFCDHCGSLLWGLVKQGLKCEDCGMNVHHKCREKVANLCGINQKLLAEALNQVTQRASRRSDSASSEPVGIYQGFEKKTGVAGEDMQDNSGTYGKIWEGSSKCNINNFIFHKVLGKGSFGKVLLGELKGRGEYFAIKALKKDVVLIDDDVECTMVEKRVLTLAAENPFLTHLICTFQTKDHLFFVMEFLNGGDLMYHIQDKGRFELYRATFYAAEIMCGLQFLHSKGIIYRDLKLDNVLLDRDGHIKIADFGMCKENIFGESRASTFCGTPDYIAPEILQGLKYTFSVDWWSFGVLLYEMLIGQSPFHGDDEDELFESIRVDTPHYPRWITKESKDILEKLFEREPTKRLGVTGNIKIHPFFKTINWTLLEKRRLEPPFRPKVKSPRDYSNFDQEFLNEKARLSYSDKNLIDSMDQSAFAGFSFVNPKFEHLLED
Protocol: as §1, §2

| Activity (%) Classical PKCs PKCα [1] | Activity (%) S6K1 [2] | Effect on PDK1 activity [3] | Activity (%) PDK1 [3] | Activity (%) PRK2 [4] | Activity (%) PKBα [5] | Activity (%) Classical PKCs PKCβ [6] | pIC50 [7] | Activity (%) Novel PKCs PKCδ [8] | SMILES |
| --- | --- | --- | --- | --- | --- | --- | --- | --- | --- |
| 154% | 41% | activates | 294% | 103% | 87% | 148% | 4.30 | 148% | Cl.O=C(O)CC(Cc1nc2cc(-c3ccccc3)ccc2[nH]1)c1ccc(Cl)cc1 (stereo not drawn) [PS168] |
| 145% | 47% | allosteric activators | 246% | 97% | 94% | 138% | 4.30 | 170% | Cl.O=C(O)CC(Cc1nc2c(Cl)cc(Cl)cc2[nH]1)c1ccc(Cl)cc1 (stereo not drawn) [PS171] |
